Measurements taken from patent publication US8377967B2, “Piperidine derivative” (Nippon Zoki Pharmaceutical Co., Ltd., priority 2008, dated 2013).

Tests used:
[1] = target: human histamine H1 receptor (Homo sapiens, UniProt P35367); assay: In vitro human histamine H1 receptor binding experiment ([3H]pyrilamine); details: HEK293A cells stably expressing human histamine H1 receptor, [3H]pyrilamine 3 nmol/L, room temperature 60 minutes
How it was run: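 HEK293A cells stably expressing human H1 receptor (3×10^5 cells/well) incubated 60 min at room temperature with test substance and 3 nmol/L [3H]pyrilamine in 50 mmol/L Tris-HCl pH 7.5, 0.1% BSA. Filtration and scintillation counting; nonspecific binding with 30 μmol/L pyrilamine.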

[2] = system: histamine-induced vascular hyperpermeability reaction; assay: Rat histamine-induced vascular hyperpermeability reaction (in vivo antihistamine action); details: SD male rat, oral administration 1 hour before intracutaneous histamine, leaked Evans Blue pigment
cerebral H1 receptor = target: T1, cerebral H1 receptor (Mus musculus, UniProt P70174); assay: Murine cerebral H1 receptor occupying content (ex vivo); type: in vivo; details: for ED50: ICR male mouse, oral administration, brain excised after 1 hour, 3H-pyrilamine binding in brain homogenate, larger = lower brain transfer, read-out: ID50 (the source's name); for ID50 (mg/kg)/ ED50 (mg/kg): ID50 of cerebral receptor binding test (Table 20) divided by ED50 of vascular hyperpermeability test (Table 19)
T1 construct: the entire brain, except for cerebellum and medulla oblongatae, was rapidly excised; from tissue; host or cells: brain homogenate (without cerebellum and medulla oblongata) of orally dosed ICR male mice
T1 sequence (P70174 whole entry): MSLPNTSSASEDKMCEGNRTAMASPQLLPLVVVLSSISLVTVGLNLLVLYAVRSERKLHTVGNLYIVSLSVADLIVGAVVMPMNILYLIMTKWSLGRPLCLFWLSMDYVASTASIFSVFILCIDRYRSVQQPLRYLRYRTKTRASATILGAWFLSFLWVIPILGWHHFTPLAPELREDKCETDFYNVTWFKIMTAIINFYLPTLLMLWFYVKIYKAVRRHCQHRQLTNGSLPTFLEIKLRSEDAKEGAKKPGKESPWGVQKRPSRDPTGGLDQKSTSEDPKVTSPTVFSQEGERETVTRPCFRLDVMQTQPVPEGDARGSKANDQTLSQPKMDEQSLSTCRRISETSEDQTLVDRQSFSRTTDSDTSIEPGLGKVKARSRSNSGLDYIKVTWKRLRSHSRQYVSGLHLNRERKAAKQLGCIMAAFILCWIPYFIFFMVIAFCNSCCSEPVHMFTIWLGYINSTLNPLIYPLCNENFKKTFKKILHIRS
Description: A 6-week-old ICR male mouse was previously fed for one week or more by allowing the mouse to take a solid feed and tap water ad libitum, under the environment setting of a temperature of 22° C., humidity of 55% and an artificial illumination of 12 hours a day, and the mouse was fasted overnight to be used for the experiment. A substance to be tested was dissolved with water for injection or suspended in 0.5% carboxymethyl cellulose solution, and the solution or suspension was orally administered to the mouse (dose volume: 0.1 mL/10 g body weight). After 1 hour from the oral administration, the mouse was decapitated, and the entire brain, except for cerebellum and medulla oblongatae, was rapidly excised. The excised brain tissue was homogenized with Polytron (manufactured by Kinematica) in an ice-cooled 50 mmol/L phosphate buffered saline (pH 7.4, 100 mg/1.9 mL).
To a test tube for reaction (TPX-Tube) were added 180 μL of the brain homogenate, and 10 μL of ^3H-pyrilamine solution (final concentration: 2 nmol/L) and 10 μL of a non-labeled pyrilamine solution (final concentration: 200 μmol/L) or a 50 mmol/L phosphate buffered saline, and the mixture was incubated at room temperature for 45 minutes, and 2.0 mL of an ice-cooled, 50 mmol/L phosphate buffered saline was then added thereto to stop the reaction. The reaction mixture was filtered with a GF/B filter (manufactured by […]), and the […] was placed in a vial and dried overnight at 60 degrees. After drying, 10 mL of a scintillator (AL-1, toluene-based, manufactured by DOJINDO LABORATORIES) was added to the product, and the disintegration per minute (dpm) was measured with a liquid scintillation counter (manufactured by Packard, U.S.A., TRI-CARB 2700TR) (5 minutes/vial).

Chain of human histamine H1 receptor (P35367 whole entry): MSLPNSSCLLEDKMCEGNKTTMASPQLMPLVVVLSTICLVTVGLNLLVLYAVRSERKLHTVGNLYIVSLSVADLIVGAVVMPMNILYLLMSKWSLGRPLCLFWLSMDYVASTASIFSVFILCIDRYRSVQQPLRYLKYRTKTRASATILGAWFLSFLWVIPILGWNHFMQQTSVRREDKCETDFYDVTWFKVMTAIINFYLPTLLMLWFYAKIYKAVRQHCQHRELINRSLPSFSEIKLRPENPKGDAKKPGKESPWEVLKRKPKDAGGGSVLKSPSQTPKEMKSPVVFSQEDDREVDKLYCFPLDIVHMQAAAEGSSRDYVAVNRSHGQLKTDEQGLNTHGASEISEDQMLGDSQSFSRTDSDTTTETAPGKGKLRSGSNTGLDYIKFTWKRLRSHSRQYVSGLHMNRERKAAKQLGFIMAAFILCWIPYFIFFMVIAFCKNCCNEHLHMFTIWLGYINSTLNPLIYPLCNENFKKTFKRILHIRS

CN1CCC(=C2c3ccccc3CCc3sc(Br)cc32)CC1 [Compound 212, 4-(2-Bromo-9,10-dihydro-1-thiabenzo[f]azulen-4-ylidene)-1-methylpiperidine] gave a melting point of 141 to 142 °C.

Work on CN1CCC(=C2c3cc(CCCC(=O)O)ccc3OCc3ccsc32)CC1 [Compound 124, 4-[4-(1-Methylpiperidin-4-ylidene)-4,10-dihydro-9-oxa-3-thiabenzo[f]azulen-6-yl]butyric acid] yielded an IC50 [1] of 46.7 nM, an ED50 [2] of 0.009 mg/kg and an ED50 (cerebral H1 receptor) of 3.2 mg/kg. For the same compound, the “ID50 (mg/kg)/ ED50 (mg/kg)” value (cerebral H1 receptor) was 355.6.

With COC(=O)CSc1ccc2c(c1)C(=C1CCNCC1)c1sccc1CO2.Cl [Compound 197, Methyl (4-piperidin-4-ylidene-4,10-dihydro-9-oxa-3-thiabenzo[f]azulen-6-ylsulfanyl)acetate hydrochloride] the IC50 [1] was 80.9 nM, the ED50 [2] was 0.19 mg/kg and the ED50 (cerebral H1 receptor) was > 200 mg/kg. The “ID50 (mg/kg)/ ED50 (mg/kg)” value (cerebral H1 receptor) was >1052.6.

With COC(=O)Cc1ccc2c(c1)C(=C1CCN(CCO)CC1)c1sccc1CO2.Cl [Compound 118, Methyl {4-[1-(2-hydroxyethyl)piperidin-4-ylidene]-4,10-dihydro-9-oxa-3-thiabenzo[f]azulen-6-yl}acetate hydrochloride] the IC50 [1] was 23.6 nM, the ED50 [2] was 0.48 mg/kg and the ED50 (cerebral H1 receptor) was 24.3 mg/kg. The “ID50 (mg/kg)/ ED50 (mg/kg)” value (cerebral H1 receptor) was 50.6.

For COC(=O)Cc1ccc2c(c1)C(=C1CCN(CCNS(C)(=O)=O)CC1)c1sccc1CO2.Cl [Compound 177, Methyl {4-[1-(2-methanesulfonylaminoethyl)piperidin-4-ylidene]-4,10-dihydro-9-oxa-3-thiabenzo[f]azulen-6-yl}acetate hydrochloride], the IC50 [1] was 7.12 nM, the ED50 [2] was 0.302 mg/kg and the ED50 (cerebral H1 receptor) was 125 mg/kg. For the same compound, the “ID50 (mg/kg)/ ED50 (mg/kg)” value (cerebral H1 receptor) was 412.6.

With COC(=O)Cc1ccc2c(c1)C(=C1CCN(C(C)C)CC1)c1sccc1CO2.Cl [Compound 131, Methyl[4-(1-isopropylpiperidin-4-ylidene)-4,10-dihydro-9-oxa-3-thiabenzo[f]azulen-6-yl]acetate hydrochloride] the IC50 [1] was 32.3 nM, the ED50 [2] was ~0.1 mg/kg and the ED50 (cerebral H1 receptor) was 9.2 mg/kg. For the same compound, the “ID50 (mg/kg)/ ED50 (mg/kg)” value (cerebral H1 receptor) was 92.0.

Work on CCCN1CCC(=C2c3cc(CC(=O)O)ccc3OCc3ccsc32)CC1 [Compound 130, [4-(1-Propylpiperidin-4-ylidene)-4,10-dihydro-9-oxa-3-thiabenzo[f]azulen-6-yl]acetic acid] yielded an IC50 [1] of 78.4 nM, an ED50 [2] of 0.044 mg/kg and an ED50 (cerebral H1 receptor) of 8 mg/kg. The “ID50 (mg/kg)/ ED50 (mg/kg)” value (cerebral H1 receptor) was 181.8.

CN1CCC(=C2c3ccccc3OCc3cc(CC(=O)O)sc32)CC1.Cl [Compound 58, [4-(1-Methylpiperidin-4-ylidene)-4,10-dihydro-9-oxa-3-thiabenzo[f]azulen-2-yl]acetic acid hydrochloride] gave an IC50 [1] of 69.3 nM, an ED50 [2] of 0.78 mg/kg and an ED50 (cerebral H1 receptor) of 205 mg/kg. The “ID50 (mg/kg)/ ED50 (mg/kg)” value (cerebral H1 receptor) was 263.1.

For CCN1CCC(=C2c3cc(CCCC(=O)O)ccc3OCc3ccsc32)CC1 [Compound 142, 4-[4-(1-Ethylpiperidin-4-ylidene)-4,10-dihydro-9-oxa-3-thiabenzo[f]azulen-6-yl]butyric acid], the IC50 [1] was 90.9 nM, the ED50 [2] was ~0.3 mg/kg and the ED50 (cerebral H1 receptor) was 11.9 mg/kg. For the same compound, the “ID50 (mg/kg)/ ED50 (mg/kg)” value (cerebral H1 receptor) was 39.7.

For CN1CCC(=C2c3cc(SCC(=O)O)ccc3OCc3ccsc32)CC1 [Compound 172, [4-(1-Methylpiperidin-4-ylidene)-4,10-dihydro-9-oxa-3-thiabenzo[f]azulen-6-ylsulfanyl]acetic acid], the IC50 [1] was 22.2 nM, the ED50 [2] was 0.117 mg/kg and the ED50 (cerebral H1 receptor) was 28 mg/kg. The “ID50 (mg/kg)/ ED50 (mg/kg)” value (cerebral H1 receptor) was 239.3.

COC(=O)Cc1ccc2c(c1)C(=C1CCN(CCCO)CC1)c1sccc1CO2.Cl [Compound 138, Methyl {4-[1-(3-hydroxypropyl)piperidin-4-ylidene]-4,10-dihydro-9-oxa-3-thiabenzo[f]azulen-6-yl}acetate hydrochloride] gave an IC50 [1] of 26 nM, an ED50 [2] of 0.47 mg/kg and an ED50 (cerebral H1 receptor) of 65.4 mg/kg. The “ID50 (mg/kg)/ ED50 (mg/kg)” value (cerebral H1 receptor) was 139.1.

For CN1CCC(=C2c3ccccc3CCc3cc(C=CC(=O)O)sc32)CC1 [Compound 15, 3-[4-(1-Methylpiperidin-4-ylidene)-9,10-dihydro-4H-3-thiabenzo[f]azulen-2-yl]acrylic acid], the IC50 [1] was 26.8 nM, the ED50 [2] was 0.18 mg/kg and the ED50 (cerebral H1 receptor) was 5.6 mg/kg. For the same compound, the “ID50 (mg/kg)/ ED50 (mg/kg)” value (cerebral H1 receptor) was 31.1.

In the case of CN1CCC(=C2c3cc(CC(=O)O)ccc3CCc3sccc32)CC1 [Compound 151, [4-(1-Methylpiperidin-4-ylidene)-9,10-dihydro-4H-1-thiabenzo[f]azulen-6-yl]acetic acid], the IC50 [1] is reported as 93.6 nM, the ED50 [2] is reported as < 0.1 mg/kg and the ED50 (cerebral H1 receptor) is reported as 6.36 mg/kg. The “ID50 (mg/kg)/ ED50 (mg/kg)” value (cerebral H1 receptor) was >63.6.

COC(=O)Cc1ccc2c(c1)C(=C1CCN(CCCC(C)=O)CC1)c1sccc1CO2.Cl [Compound 169, Methyl {4-[1-(4-oxopentyl)piperidin-4-ylidene]-4,10-dihydro-9-oxa-3-thiabenzo[f]azulen-6-yl}acetate hydrochloride] showed an IC50 [1] of 8.32 nM, an ED50 [2] of 0.241 mg/kg and an ED50 (cerebral H1 receptor) of 12.5 mg/kg. The “ID50 (mg/kg)/ ED50 (mg/kg)” value (cerebral H1 receptor) was 51.9.

For CCCN1CCC(=C2c3cc(CC(=O)OC)ccc3OCc3ccsc32)CC1.Cl [Compound 129, Methyl[4-(1-propylpiperidin-4-ylidene)-4,10-dihydro-9-oxa-3-thiabenzo[f]azulen-6-yl]acetate hydrochloride], the IC50 [1] was 22.7 nM, the ED50 [2] was 0.088 mg/kg and the ED50 (cerebral H1 receptor) was 40.5 mg/kg. The “ID50 (mg/kg)/ ED50 (mg/kg)” value (cerebral H1 receptor) was 460.2.

In the case of COC(=O)Cc1ccc2c(c1)C(=C1CCN(CCSC)CC1)c1sccc1CO2.Cl [Compound 200, Methyl {4-[1-(2-methylsulfanylethyl)piperidin-4-ylidene]-4,10-dihydro-9-oxa-3-thiabenzo[f]azulen-6-yl}acetate hydrochloride], the IC50 [1] is reported as 7.83 nM, the ED50 [2] is reported as ~0.3 mg/kg and the ED50 (cerebral H1 receptor) is reported as 53.4 mg/kg. For the same compound, the “ID50 (mg/kg)/ ED50 (mg/kg)” value (cerebral H1 receptor) was 178.0.
